Data: patent publication US4727080A, “1-substituted derivatives of 6-fluoro-7-(pyrrol-1-yl)-1,4-dihydro-4-oxoquinoline-3-carboxylic acid, their preparation and their application as drugs” (Provesan S.A., priority 1984, dated 1988)
Converted amounts (≈) assume the structure as drawn.

Columns and labels:
[1] = test system: Micrococcus flavus ATCC 10240; experiment: "In vitro" MIC, Micrococcus flavus; format: cell-based; details: ATCC10240; Micrococcus flavus ATCC 10240; dextrose agar, 37° C., 20 hours; read-out: "In vitro" MIC
Procedure: (§1) Antimicrobial pharmacological activity (G. L. Daquet and Y. A. Chabbect, Techniques en bacteriologie (Techniques in bacteriology), vol. 3, Flammarion Medecine-Sciences, Paris, 1972, and W. B. Hugo and A. D. Rusell, Pharmaceutical Microbiology, Blackwell Scientific Publications, London (1977).
Micrococcus flavus ATTC 10240
(§2) A streak culture of each of the microorganisms is formed in tubes of antibiotics agar no. 1 and incubated for 20 hours at 37° C. A culture loop is then taken and a culture is formed in a tryptone-soya broth and incubated for 20 hours at 37° C. The resulting culture is diluted to 1/4 with Ringer's physiological solution to give a standardized suspension of 10^5 ufc/ml for each organism.
(§3) Starting from a solution of 1000 μg/ml in 0.1N NaOH, each product is diluted successively in dextrose agar (melted beforehand and kept at 50° C.) to give the following concentrations: 64-32-16-8-4-2-1-0.5-0.25-0.125 μg of derivative/ml of medium.
(§4) After this, each concentration of each product is divided up into Petri dishes of 10 cm diameter at a rate of 10 ml of medium per dish and using as many dishes as there are microorganisms to be tested.
(§5) Once the medium has cooled, the dishes are treated with the inoculations at a rate of 0.4 ml of inoculation per dish. They are spread out with a Drigalski loop and the supernatant is collected. The inoculated dishes are incubated at 37° C. for 20 hours.

[2] = test system: Klebsiella pneumoniae ATCC 10031; experiment: "In vitro" MIC, Klebsiella pneumoniae; format: cell-based; details: ATCC10031; Klebsiella pneumoniae ATCC 10031; dextrose agar, 37° C., 20 hours; read-out: "In vitro" MIC
Procedure: as §1
Klebsiella pneumoniae ATCC 10031
as §2, §3, §4, §5

[3] = test system: Enterobacter cloacae CHSP-20; experiment: "In vitro" MIC, Enterobacter cloacae; format: cell-based; details: CHSP20; Enterobacter cloacae CHSP-20; dextrose agar, 37° C., 20 hours; read-out: "In vitro" MIC
Procedure: as §1
Enterobacter cloacae CHSP-20
as §2, §3, §4, §5

[4] = test system: Streptococcus faecalis ATCC 10541; experiment: "In vitro" MIC, Streptococcus faecalis; format: cell-based; details: Enterococcus faecalis, ATCC10541; Streptococcus faecalis ATCC 10541; dextrose agar, 37° C., 20 hours; read-out: "In vitro" MIC
Procedure: as §1
Streptococcus faecalis ATCC 10541
as §2, §3, §4, §5

Gram-positive cocci = experiment: "In vitro" antimicrobial activity compared with nalidixic acid, Gram-positive cocci; format: cell-based
Procedure: as §1, §2, §3, §4, §5

[5] = test system: Proteus mirabilis ATCC 4675; experiment: "In vitro" MIC, Proteus mirabilis; format: cell-based; details: ATCC4675; Proteus mirabilis ATCC 4675; dextrose agar, 37° C., 20 hours; read-out: "In vitro" MIC
Procedure: as §1
Proteus mirabilis ATCC 4675
as §2, §3, §4, §5

[6] = test system: Pseudomonas aeruginosa 25115; experiment: "In vitro" MIC, Pseudomonas aeruginosa 25115; format: cell-based; details: Pseudomonas aeruginosa 25115; dextrose agar, 37° C., 20 hours; read-out: "In vitro" MIC
Procedure: as §1
Pseudomonas aeruginosa 25115
as §2, §3, §4, §5

[7] = test system: Enterobacter aerogenes ATCC 15038; experiment: "In vitro" MIC, Enterobacter aerogenes; format: cell-based; details: Klebsiella aerogenes, ATCC15038; Enterobacter aerogenes ATCC 15038; dextrose agar, 37° C., 20 hours; read-out: "In vitro" MIC
Procedure: as §1
Enterobacter aerogenes ATCC 15038
as §2, §3, §4, §5

[8] = test system: Bacillus subtilis ATCC 6633; experiment: "In vitro" MIC, Bacillus subtilis; format: cell-based; details: ATCC6633; Bacillus subtilis ATCC 6633; dextrose agar, 37° C., 20 hours; read-out: "In vitro" MIC
Procedure: as §1
Bacillus subtilis ATCC 6633
as §2, §3, §4, §5

Shigella flexnerii = experiment: "In vitro" MIC, Shigella flexnerii; format: cell-based; details: 20 h, read-out: "In vitro" MIC
Procedure: as §1, §2, §3, §4, §5

[9] = test system: Staphylococcus aureus ATCC 5488/23; experiment: "In vitro" MIC, Staphylococcus aureus ATCC 5488/23; format: cell-based; details: ATCC5488; Staphylococcus aureus ATCC 5488/23; dextrose agar, 37° C., 20 hours; read-out: "In vitro" MIC
Procedure: as §1
Staphylococcus aureus ATCC 5488/23
as §2, §3, §4, §5

[10] = test system: Escherichia coli ATCC 10536; experiment: "In vitro" MIC, Escherichia coli ATCC 10536; format: cell-based; details: ATCC10536; Escherichia coli ATCC 10536; dextrose agar, 37° C., 20 hours; read-out: "In vitro" MIC
Procedure: as §1
Escherichia coli ATCC 10536
as §2, §3, §4, §5

Sarcina lutea ATCC 9341 = experiment: "In vitro" MIC, Sarcina lutea; format: cell-based; details: Micrococcus luteus, ATCC9341; Sarcina lutea ATCC 9341; dextrose agar, 37° C., 20 hours; read-out: "In vitro" MIC
Procedure: as §1, §2, §3, §4, §5

[11] = test system: Staphylococcus aureus ATCC 25178; experiment: "In vitro" MIC, Staphylococcus aureus ATCC 25178; format: cell-based; details: ATCC25178; Staphylococcus aureus ATCC 25178; dextrose agar, 37° C., 20 hours; read-out: "In vitro" MIC
Procedure: as §1
Staphylococcus aureus ATCC 25178
as §2, §3, §4, §5

[12] = test system: Citrobacter freundii ATCC 11606; experiment: "In vitro" MIC, Citrobacter freundii; format: cell-based; details: ATCC11606; Citrobacter freundii ATCC 11606; dextrose agar, 37° C., 20 hours; read-out: "In vitro" MIC
Procedure: as §1
Citrobacter freundii ATCC 11606
as §2, §3, §4, §5

[13] = test system: Salmonella typhimurium AMES 100; experiment: "In vitro" MIC, Salmonella typhimurium AMES 100; format: cell-based; details: Salmonella enterica; Salmonella typhimurium AMES 100; dextrose agar, 37° C., 20 hours; read-out: "In vitro" MIC
Procedure: as §1
Salmonella typhimurium AMES 100
as §2, §3, §4, §5

[14] = test system: Pseudomonas aeruginosa ADSA 47; experiment: "In vitro" MIC, Pseudomonas aeruginosa ADSA 47; format: cell-based; details: ADSA47; Pseudomonas aeruginosa ADSA 47; dextrose agar, 37° C., 20 hours; read-out: "In vitro" MIC
Procedure: as §1
Pseudomonas aeruginosa ADSA 47
as §2, §3, §4, §5

Escherichia coli R-1513 = experiment: "In vitro" MIC, Escherichia coli R-1513; format: cell-based; details: R1513; Escherichia coli R-1513; dextrose agar, 37° C., 20 hours; read-out: "In vitro" MIC
Procedure: as §1, §2, §3, §4, §5

[15] = test system: Serratia marcescens ATTC 13880; experiment: "In vitro" MIC, Serratia marcescens; format: cell-based; details: ATTC13880; Serratia marcescens ATTC 13880; dextrose agar, 37° C., 20 hours; read-out: "In vitro" MIC
Procedure: as §1
Serratia marcescens ATTC 13880
as §2, §3, §4, §5

[16] = test system: Salmonella typhimurium AMES 98; experiment: "In vitro" MIC, Salmonella typhimurium AMES 98; format: cell-based; details: Salmonella enterica; Salmonella typhimurium AMES 98; dextrose agar, 37° C., 20 hours; read-out: "In vitro" MIC
Procedure: as §1
Salmonella typhimurium AMES 98
as §2, §3, §4, §5

Proteus morganii CHSP-16 = experiment: "In vitro" MIC, Proteus morganii; format: cell-based; details: Morganella morganii, CHSP16; Proteus morganii CHSP-16; dextrose agar, 37° C., 20 hours; read-out: "In vitro" MIC
Procedure: as §1, §2, §3, §4, §5

[17] = test system: Gram-negative microorganisms; experiment: "In vitro" antimicrobial activity compared with nalidixic acid, Gram-negative microorganisms; format: cell-based
Procedure: as §1, §2, §3, §4, §5

Acute toxicity to mice = details: mouse, in vivo, ip, suspension in 5% gum arabic, mortality over 7 days
Procedure: The experimental animals used to determine this toxicity were albino mice of the C.F.L.P. strain and of both sexes, weighing between 19 and 25 grams. After an 18-hour fasting period with water "ad libitum", the derivatives forming the subject of the present invention are administered intraperitoneally as a suspension in 5% gum arabic. The volume of suspension administered was 0.4 ml/20 grams (20 ml/kg) in all cases, the concentration of the suspension being changed according to the dose administered.
One hour after administration of the derivatives, the animals are given a standard Panlab rat-mouse food. The mortality was observed over a period of 7 days. Differences in mortality between the sexes were not observed with any of the products.

all microorganisms = experiment: "In vitro" antimicrobial activity compared with nalidixic acid, all microorganisms; format: cell-based; details: against all microorganisms
Procedure: as §1, §2, §3, §4, §5

`O=C(O)c1cn(CC2CC2)c2cc(-n3cccc3)c(F)cc2c1=O` [Example 4, 6-fluoro-7-(pyrrol-1-yl)-1-cyclopropylmethyl-4-oxo-1,4-dihydroquinoline-3-carboxylic acid] showed an MIC [1] of 1 µg/mL (≈ 3.06 µM), an MIC [2] of 1 µg/mL (≈ 3.06 µM) and an MIC [3] of 4 µg/mL (≈ 12.3 µM). For the same molecule, the MIC [4] was 16 µg/mL (≈ 49 µM), the “"in vitro" activity compared with nalidixic acid” value (Gram-positive cocci) was “greater activity towards Gram-positive cocci” and the MIC [5] was 32 µg/mL (≈ 98.1 µM). For the same molecule, the MIC [6] was ≥ 32 µg/mL, the MIC [7] was 8 µg/mL (≈ 24.5 µM) and the MIC [8] was 0.125 µg/mL (≈ 0.383 µM). It also gave an MIC (Shigella flexnerii) of 4 µg/mL (≈ 12.3 µM), an MIC [9] of 2 µg/mL (≈ 6.13 µM) and an MIC [10] of 0.25 µg/mL (≈ 0.766 µM). It also gave an MIC (Sarcina lutea ATCC 9341) of 8 µg/mL (≈ 24.5 µM), an MIC [11] of 1 µg/mL (≈ 3.06 µM) and an MIC [12] of 16 µg/mL (≈ 49 µM). For the same molecule, the MIC [13] was 2 µg/mL (≈ 6.13 µM), the MIC [14] was ≥ 32 µg/mL and the MIC (Escherichia coli R-1513) was 8 µg/mL (≈ 24.5 µM). The MIC [15] was 4 µg/mL (≈ 12.3 µM), the MIC [16] was 0.25 µg/mL (≈ 0.766 µM) and the MIC (Proteus morganii CHSP-16) was 8 µg/mL (≈ 24.5 µM). The “activity compared with nalidixic acid” value [17] was “activity of the same order as nalidixic acid” and the LD50 at 168 h (Acute toxicity to mice) was > 1600 mg/kg.
In the case of `O=C(O)c1cn(C2CC2)c2cc(-n3cccc3)c(F)cc2c1=O` [Example 9, 6-fluoro-7-(pyrrol-1-yl)-1-cyclopropyl-1,4-dihydro-4-oxoquinoline-3-carboxylic acid], the MIC [1] is reported as 0.5 µg/mL (≈ 1.6 µM), the MIC [2] is reported as < 0.06 µg/mL and the MIC [3] is reported as 0.12 µg/mL (≈ 0.384 µM). For the same molecule, the MIC [4] was 0.25 µg/mL (≈ 0.801 µM), the “activity compared with nalidixic acid” value (all microorganisms) was “greater than the activity of nalidixic acid” and the MIC [5] was 0.5 µg/mL (≈ 1.6 µM). It also gave an MIC [6] of 1 µg/mL (≈ 3.2 µM), an MIC [7] of 0.12 µg/mL (≈ 0.384 µM) and an MIC [8] of 0.25 µg/mL (≈ 0.801 µM). The MIC (Shigella flexnerii) was 0.2 µg/mL (≈ 0.64 µM), the MIC [9] was < 0.06 µg/mL and the MIC [10] was < 0.06 µg/mL. The MIC (Sarcina lutea ATCC 9341) was 0.5 µg/mL (≈ 1.6 µM), the MIC [11] was < 0.06 µg/mL and the MIC [12] was 0.25 µg/mL (≈ 0.801 µM). For the same molecule, the MIC [13] was < 0.06 µg/mL, the MIC [14] was 2 µg/mL (≈ 6.4 µM) and the MIC (Escherichia coli R-1513) was 0.12 µg/mL (≈ 0.384 µM). For the same molecule, the MIC [15] was 0.5 µg/mL (≈ 1.6 µM), the MIC [16] was 1 µg/mL (≈ 3.2 µM) and the MIC (Proteus morganii CHSP-16) was 0.5 µg/mL (≈ 1.6 µM). The LD50 at 168 h (Acute toxicity to mice) was > 1600 mg/kg.
